Source: the supplement of paper PMC10307832

Legend:
Experiment in all cases: relative viability (nuclei count vs DMSO), 5 days (fraction); higher = more cells survive
[1] = compound: OCc1c[nH]c2ccccc12 [Indole-3-carbinol] + CS(=O)(=O)N1CCN(Cc2cc3nc(-c4cccc5[nH]ncc45)nc(N4CCOCC4)c3s2)CC1 [Pictilisib] (partner 1 µM)
Procedure, shortened: (§1)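 Each reported value is a median over duplicate plates. It expresses relative viability: treated-well nuclei count divided by vehicle-well nuclei count. Lung cancer cell lines in 1536-well plates were dosed by pin tool a day after seeding, alone with one drug or with a fixed anchor-drug dose plus five library-drug doses (not always all listed) in √10 steps, and nuclei were counted after 5 days.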

[2] = compound: OCc1c[nH]c2ccccc12 [Indole-3-carbinol] + CS(=O)(=O)CCNCc1ccc(-c2ccc3ncnc(Nc4ccc(OCc5cccc(F)c5)c(Cl)c4)c3c2)o1 [Lapatinib] (partner 2 µM)
Procedure, shortened: as §1

[3] = compound: OCc1c[nH]c2ccccc12 [Indole-3-carbinol] + COc1cc2c(Oc3ccc(NC(=O)C4(C(=O)Nc5ccc(F)cc5)CC4)cc3F)ccnc2cc1OCCCN1CCOCC1 [Foretinib] (partner 0.25 µM)
Procedure, shortened: as §1

[4] = compound: OCc1c[nH]c2ccccc12 [Indole-3-carbinol] + CC(C)C[C@H](NC(=O)[C@H](Cc1ccccc1)NC(=O)c1cnccn1)B(O)O [Bortezomib] (partner 0.002 µM)
Procedure, shortened: as §1

[5] = compound: OCc1c[nH]c2ccccc12 [Indole-3-carbinol] + C[C@]1(O)C[C@@H](c2nc(-c3ccc4ccc(-c5ccccc5)nc4c3)c3c(N)nccn32)C1 [Linsitinib] (partner 1 µM)
Procedure, shortened: as §1

[6] = compound: OCc1c[nH]c2ccccc12 [Indole-3-carbinol] + O=C(c1cc(Cc2n[nH]c(=O)c3ccccc23)ccc1F)N1CCN(C(=O)C2CC2)CC1 [Olaparib] (partner 8 µM)
Procedure, shortened: as §1

[7] = compound: OCc1c[nH]c2ccccc12 [Indole-3-carbinol] + CC1(C)CCC(c2ccc(Cl)cc2)=C(CN2CCN(c3ccc(C(=O)NS(=O)(=O)c4ccc(N[C@H](CCN5CCOCC5)CSc5ccccc5)c(S(=O)(=O)C(F)(F)F)c4)cc3)CC2)C1 [Navitoclax] (partner 0.5 µM)
Procedure, shortened: as §1

[8] = compound: OCc1c[nH]c2ccccc12 [Indole-3-carbinol] + Cc1nc(NC(=O)N2CCC[C@H]2C(N)=O)sc1-c1ccnc(C(C)(C)C(F)(F)F)c1 [Alpelisib] (partner 2 µM)
Procedure, shortened: as §1

[9] = compound: OCc1c[nH]c2ccccc12 [Indole-3-carbinol] + C[C@@H](Oc1cc(-c2cnn(C3CCNCC3)c2)cnc1N)c1c(Cl)ccc(F)c1Cl [Crizotinib] (partner 1 µM)
Procedure, shortened: as §1

Indole-3-carbinol = compound: OCc1c[nH]c2ccccc12 [Indole-3-carbinol]
Procedure, shortened: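 Viability here means nuclei in treated wells divided by nuclei in vehicle wells, reported as the median across plates. Only plates with control CV below 25% and at least one doubling passed. Lung cancer cell lines in 1536-well plates were exposed to five √10-spaced library-drug doses for 5 days and counted from 4× Hoechst images in MetaXpress.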

[10] = compound: OCc1c[nH]c2ccccc12 [Indole-3-carbinol] + CCNC(=O)c1noc(-c2cc(C(C)C)c(O)cc2O)c1-c1ccc(CN2CCOCC2)cc1 [Luminespib] (partner 0.01 µM)
Procedure, shortened: as §1

[11] = compound: OCc1c[nH]c2ccccc12 [Indole-3-carbinol] + COc1cccc2cc(-c3nc([C@H]4CC[C@H](C(=O)O)CC4)n4ncnc(N)c34)[nH]c12 [OSI-027] (partner 0.5 µM)
Procedure, shortened: as §1

[12] = compound: OCc1c[nH]c2ccccc12 [Indole-3-carbinol] + Cc1nc(Nc2ncc(C(=O)Nc3c(C)cccc3Cl)s2)cc(N2CCN(CCO)CC2)n1 [Dasatinib] (partner 0.075 µM)
Procedure, shortened: as §1

[13] = compound: OCc1c[nH]c2ccccc12 [Indole-3-carbinol] + N=C(N)NC(=N)NCCc1ccccc1 [Phenformin] (partner 250 µM)
Procedure, shortened: as §1

[14] = compound: OCc1c[nH]c2ccccc12 [Indole-3-carbinol] + Cc1cc(Nc2cc(N3CCN(C)CC3)nc(Sc3ccc(NC(=O)C4CC4)cc3)n2)n[nH]1 [Tozasertib] (partner 0.1 µM)
Procedure, shortened: as §1

## NCI-H1299
[1]; first compound 0.253 µM
  relative viability: 0.795
[1]; first compound 0.8 µM
  relative viability: 0.879
[1]; first compound 2.53 µM
  relative viability: 0.691
[1]; first compound 8 µM
  relative viability: 0.761
[2]; first compound 0.253 µM
  relative viability: 0.892
[2]; first compound 0.8 µM
  relative viability: 0.997
[2]; first compound 2.53 µM
  relative viability: 0.925
[2]; first compound 8 µM
  relative viability: 0.945
[3]; first compound 0.253 µM
  relative viability: 1.07
[3]; first compound 0.8 µM
  relative viability: 1.07
[3]; first compound 2.53 µM
  relative viability: 1.14
[3]; first compound 8 µM
  relative viability: 1.04
[4]; first compound 0.253 µM
  relative viability: 0.977
[4]; first compound 0.8 µM
  relative viability: 1.02
[4]; first compound 2.53 µM
  relative viability: 1.01
[4]; first compound 8 µM
  relative viability: 1.03
[5]; first compound 0.253 µM
  relative viability: 0.986
[5]; first compound 0.8 µM
  relative viability: 1
[5]; first compound 2.53 µM
  relative viability: 1.02
[5]; first compound 8 µM
  relative viability: 0.869
[6]; first compound 0.253 µM
  relative viability: 0.907
[6]; first compound 0.8 µM
  relative viability: 0.995
[6]; first compound 2.53 µM
  relative viability: 0.954
[6]; first compound 8 µM
  relative viability: 0.952
[7]; first compound 0.253 µM
  relative viability: 1.01
[7]; first compound 0.8 µM
  relative viability: 1.05
[7]; first compound 2.53 µM
  relative viability: 1.03
[7]; first compound 8 µM
  relative viability: 1.02
[8]; first compound 0.253 µM
  relative viability: 1.05
[8]; first compound 0.8 µM
  relative viability: 1.11
[8]; first compound 2.53 µM
  relative viability: 1.11
[8]; first compound 8 µM
  relative viability: 1.01
[9]; first compound 0.253 µM
  relative viability: 0.924
[9]; first compound 0.8 µM
  relative viability: 1
[9]; first compound 2.53 µM
  relative viability: 0.952
[9]; first compound 8 µM
  relative viability: 0.906
Indole-3-carbinol; 0.253 µM
  relative viability: 1.02
Indole-3-carbinol; 0.8 µM
  relative viability: 1.04
Indole-3-carbinol; 2.53 µM
  relative viability: 0.999
Indole-3-carbinol; 8 µM
  relative viability: 0.989

## Calu-6
[1]; first compound 0.253 µM
  relative viability: 0.887
[1]; first compound 0.8 µM
  relative viability: 1.05
[1]; first compound 2.53 µM
  relative viability: 0.916
[1]; first compound 8 µM
  relative viability: 0.865
[2]; first compound 0.253 µM
  relative viability: 1.03
[2]; first compound 0.8 µM
  relative viability: 1.12
[2]; first compound 2.53 µM
  relative viability: 1.05
[2]; first compound 8 µM
  relative viability: 0.94
[3]; first compound 0.253 µM
  relative viability: 0.927
[3]; first compound 0.8 µM
  relative viability: 0.941
[3]; first compound 2.53 µM
  relative viability: 0.842
[3]; first compound 8 µM
  relative viability: 0.841
[4]; first compound 0.253 µM
  relative viability: 1.08
[4]; first compound 0.8 µM
  relative viability: 1.1
[4]; first compound 2.53 µM
  relative viability: 1.01
[4]; first compound 8 µM
  relative viability: 0.966
[5]; first compound 0.253 µM
  relative viability: 0.974
[5]; first compound 0.8 µM
  relative viability: 0.88
[5]; first compound 2.53 µM
  relative viability: 1.07
[5]; first compound 8 µM
  relative viability: 0.92
[6]; first compound 0.253 µM
  relative viability: 0.615
[6]; first compound 0.8 µM
  relative viability: 0.629
[6]; first compound 2.53 µM
  relative viability: 0.59
[6]; first compound 8 µM
  relative viability: 0.536
[7]; first compound 0.253 µM
  relative viability: 0.836
[7]; first compound 0.8 µM
  relative viability: 0.947
[7]; first compound 2.53 µM
  relative viability: 0.889
[7]; first compound 8 µM
  relative viability: 0.648
[8]; first compound 0.253 µM
  relative viability: 1.04
[8]; first compound 0.8 µM
  relative viability: 0.966
[8]; first compound 2.53 µM
  relative viability: 0.819
[8]; first compound 8 µM
  relative viability: 0.922
[9]; first compound 0.253 µM
  relative viability: 0.759
[9]; first compound 0.8 µM
  relative viability: 0.863
[9]; first compound 2.53 µM
  relative viability: 0.871
[9]; first compound 8 µM
  relative viability: 0.742
Indole-3-carbinol; 0.253 µM
  relative viability: 1.07
Indole-3-carbinol; 0.8 µM
  relative viability: 0.994
Indole-3-carbinol; 2.53 µM
  relative viability: 1
Indole-3-carbinol; 8 µM
  relative viability: 0.914

## NCI-H1623
[10]; first compound 0.253 µM
  relative viability: 0.425
[10]; first compound 0.8 µM
  relative viability: 0.543
[10]; first compound 2.53 µM
  relative viability: 0.532
[10]; first compound 8 µM
  relative viability: 0.529
[11]; first compound 0.253 µM
  relative viability: 0.412
[11]; first compound 0.8 µM
  relative viability: 0.443
[11]; first compound 2.53 µM
  relative viability: 0.424
[11]; first compound 8 µM
  relative viability: 0.436
[12]; first compound 0.253 µM
  relative viability: 0.531
[12]; first compound 0.8 µM
  relative viability: 0.566
[12]; first compound 2.53 µM
  relative viability: 0.539
[12]; first compound 8 µM
  relative viability: 0.577
[3]; first compound 0.253 µM
  relative viability: 0.881
[3]; first compound 0.8 µM
  relative viability: 0.989
[3]; first compound 2.53 µM
  relative viability: 0.803
[3]; first compound 8 µM
  relative viability: 0.858
[13]; first compound 0.253 µM
  relative viability: 0.725
[13]; first compound 0.8 µM
  relative viability: 0.611
[13]; first compound 2.53 µM
  relative viability: 0.571
[13]; first compound 8 µM
  relative viability: 0.551
[14]; first compound 0.253 µM
  relative viability: 0.467
[14]; first compound 0.8 µM
  relative viability: 0.486
[14]; first compound 2.53 µM
  relative viability: 0.39
[14]; first compound 8 µM
  relative viability: 0.453
Indole-3-carbinol; 0.253 µM
  relative viability: 0.924
Indole-3-carbinol; 0.8 µM
  relative viability: 1.02
Indole-3-carbinol; 2.53 µM
  relative viability: 0.984
Indole-3-carbinol; 8 µM
  relative viability: 0.978
